The values below are quoted from earlier work in patent publication US20260083654A1, “PHOTOPROTECTIVE SYSTEM CONSISTING OF 4 SUNSCREENS” (PIERRE FABRE DERMO-COSMETIQUE, priority 2019, published 2026).

The conditions of the series: two peaks, broad spectrum filter.

Where “and” joins values, the source holds several entries; their conditions need not be identical. Equal values may be shown once.

With `CCCCC(CC)COc1ccc(-c2nc(-c3ccc(OC)cc3)nc(-c3ccc(OCC(CC)CCCC)cc3O)n2)c(O)c1` (stereo not shown) [BEMT, 2,4-bis[4-(2-ethylhexyloxy)-2-hydroxyphenyl]-6-(4-methoxyphenyl)-1,3,5-triazine], the absorption peaks is 310 nm and 340 nm.
